Assays:
Format in all cases: in vitro ADME, pig
[1] = Patches holding agar gel disc reservoir arrays at constant area fraction, mannitol delivery; details: 3 mm reservoir array (28 reservoirs) vs one 16 mm reservoir; area fraction ~20%; skin area 10.25 cm^2; identical formulation
Text: All enhancements are obtained by normalizing the amount delivered into the skin at any particular reservoir size to that delivered at 16 mm. Error bars correspond to one standard deviation (n=5).
To experimentally determine the enhancement obtained by reservoir arrays, we created patches holding reservoir arrays containing ^3H labeled mannitol as the model solute. These patches were created at varying reservoir sizes (16 mm, 9 mm, 5 mm and 3 mm). In these patches, the reservoirs were arranged in a square pattern with the center-to-center distance between two adjacent reservoirs set to twice the reservoir diameter. […] Keeping the area fraction the same for all the reservoir sizes (˜20%) drug reservoirs were placed on these skin pieces.

[2] = Agar gel disc assembly on Franz diffusion cell, mannitol skin permeability; details: agar gel disks 16, 9, 5 and 3 mm, relative to 16 mm disk; 0.5% SLS in PBS; 24 hrs
Procedure: All experiments were performed using pig skin. Skin was harvested from pigs (15) and was stored at −70° C. until the time of experiments. Skin was thawed at room temperature just before using it for experiments. […] Agar Gel Disc Assembly: A third experimental system was used to assess the dependence of permeability on contact area. In this system, permeation of mannitol from gel disks was studied. For this purpose, agar gel disks were prepared by dissolving 0.5 gm agar (Becton Dickinson Microbiology Systems, Sparks, Md.) in 20 ml of 0.5% solution (w/v) SLS in PBS. 10 μCi/ml ^3H radiolabeled mannitol was added to the mixture. The mixture was heated until agar formed a viscous solution. The viscous mixture was allowed to settle into a gel by pouring it into a petri dish to form a circular disc of 3.5 mm thickness. Disks of various diameters (16, 9, 5, and 3 mm) were then cut using a punch. […] Receiver compartments were sampled over 24 hrs and concentration of radiolabeled mannitol in these samples was measured using a scintillation counter. Permeability was calculated for each reservoir size by dividing the total flux obtained by the number of reservoirs at that particular size. Enhancement factors were calculated by dividing the permeability obtained from a disk of a particular size with reference to permeability obtained from the largest disk (16 mm).

[3] = Polycarbonate/teflon array assembly, mannitol delivery across skin vs Franz diffusion cell; details: reservoir size approaching 2.5 mm vs single 8 mm (16 mm diameter Franz cell) reservoir; 10 μCi/mL 3H-mannitol in 0.5% SLS in PBS; 24 hours
Procedure: The present invention is a novel transdermal drug delivery patch with an array of spatially organized reservoirs. In order to verify the validity of our invention we used three different assemblies, simulating the proposed matrix patch, that in essence provide the same working principle. All experiments were performed using pig skin. Skin was harvested from pigs (15) and was stored at −70° C. until the time of experiments. Skin was thawed at room temperature just before using it for experiments. A brief discussion of the experimental system used for the three cases follows. I. Polycarbonate/Teflon Array Assembly: This assembly consists of two plates made of polycarbonate/teflon—a donor plate and a receiver plate. The top plate (donor plate) has through holes (wells) drilled in it, each of which acts as an isolated donor chamber. The bottom plate (receiver plate) also has holes (wells) drilled in the same pattern as the donor plate and simulates the receiver compartment. The skin is placed between the donor and receiver plate and the plate assembly is clamped using four screws. […] At the end of 24 hours samples were drawn from the receiver plate and analyzed in a liquid scintillation counter (Packard Tri-Carb 2100TR, Packard Instrument Company, Meriden, Conn.). […] The data was then analyzed to verify any effect of a distributed dispensing system on the amount of drug delivered across the skin. […]

[4] = Polymer (polyurethane) array assembly, mannitol skin permeability; details: polyurethane arrays, reservoirs 6 to 2 mm, relative to 6 mm reservoir; 0.5% SLS in PBS; 24 hrs; no clamping
Procedure: Polymer (Polyurethane) Array Assembly: Skin was placed in a PBS receiver fluid (10 ml) such that PBS contacted the skin on all sides and the bottom but not the top (FIG. 5). An array of liquid reservoirs was created by punching circular holes in a matrix pattern in a polyurethane slab (thickness=5 mm). These holes were separated from each other by one diameter. Such arrays were made for different size reservoirs (diameters in the range of 2-6 mm). The top surface of the skin was dried of any surface moisture. […]
Transdermal transport experiments were performed using mannitol as a model solute and sodium lauryl sulfate (SLS) as a model enhancer. […] Skin permeability in the skin exposed to reservoirs was calculated for each reservoir size by dividing the total amount delivered by the number of reservoirs, area of each reservoir, contact time, and mannitol concentration in each reservoir. Enhancement factors corresponding to various reservoir sizes were then calculated with reference to the permeability obtained from the largest reservoir (6 mm).
The enhancements are calculated with respect to the permeability obtained from a 6 mm reservoir.

SMILES: OC[C@@H](O)[C@@H](O)[C@H](O)[C@H](O)CO [mannitol]
- amount of mannitol delivered per unit macroscopic area, array vs single large reservoir [1]: about 11 times
- mannitol permeability enhancement for varying reservoir sizes [2]: significant increase in permeability is observed with a decrease in disk diameter
- amount of mannitol delivered across the skin per unit area, normalized to single continuous reservoir [3]: exceeding 10 fold
- mannitol permeability enhancement as a function of reciprocal of reservoir size [4]: permeability enhancement increases with inverse reservoir size
